Measured values from US9476099B2 (TRUSTEES OF DARTMOUTH COLLEGE, priority 2012, dated 2016).

System: gene promoters in NT2/D1-R1 control and DNMT3B knockdown cells
Assay: Genome-wide promoter methylation analysis, HumanMethylation27 BeadChip (Table 15)
Type: cell-based, human
Conditions: three days low-dose decitabine, control NT2/D1-R1
Protocol: DNA methylation analysis was performed in samples in triplicate using the […] […] assay with the HumanMethylation27 BeadChip ([…]) and the BeadChip was scanned on the BeadArray Reader ([…]), according to the manufacturer's instructions. Raw data was normalized and analyzed with Genome Studio software ([…]). The HumanMethylation27 BeadChip assays 27,578 CpGs covering more than 14,000 genes, mostly from promoter regions. […] Hierarchical clustering was performed as stated above. HumanMethylation27 BeadChip data and gene expression microarray data were submitted to NCBI GEO.

Q: Nc1ncn([C@H]2C[C@H](O)[C@@H](CO)O2)c(=O)n1 [decitabine, 5-aza-deoxycytidine] was tested. Which “genes with altered promoter methylation” value did it give?
A: The value was 388 genes.

Q: What about the “genes with decreased levels of promoter methylation” value (of 388 genes) of the same compound?
A: Its value is 305 genes.
